Measured values: PubChem BioAssay (NCI)
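48-hour exposure; five concentrations; linearly interpolated endpoints. Abbreviation: GI50, concentration required for 50% inhibition of growth. TGI is the concentration that stops growth completely.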

Columns and labels:
Assay in all cases: NCI tumour cell line growth inhibition, 48 h
[1] = tested on: K-562 leukemia
[2] = tested on: M14 melanoma
[3] = tested on: NCI-H226 lung
[4] = tested on: SNB-19 CNS
[5] = tested on: UACC-62 melanoma
[6] = tested on: SN12C renal
[7] = tested on: BT-549 breast
[8] = tested on: HOP-92 NSCLC
[9] = tested on: HS 578T breast
[10] = tested on: TK-10 renal
[11] = tested on: SF-268 CNS
[12] = tested on: HCT-116 colon
[13] = tested on: SF-295 CNS
[14] = tested on: COLO 205 colon
[15] = tested on: SK-MEL-2 melanoma
[16] = tested on: MCF7 breast
[17] = tested on: MOLT-4 leukemia
[18] = tested on: EKVX NSCLC
[19] = tested on: PC-3 prostate
[20] = tested on: MDA-MB-231 breast
[21] = tested on: HL-60(TB) leukemia
[22] = tested on: UACC-257 melanoma
[23] = tested on: CAKI-1 renal
[24] = tested on: OVCAR-5 ovarian
[25] = tested on: NCI-H460 lung
[26] = tested on: A549 NSCLC
[27] = tested on: SK-OV-3 ovarian
[28] = tested on: CCRF-CEM leukemia
[29] = tested on: SK-MEL-28 melanoma
[30] = tested on: LOX IMVI melanoma
[31] = tested on: OVCAR-8 ovarian
[32] = tested on: SF-539 CNS
[33] = tested on: RXF 393 renal
[34] = tested on: SR leukemia
[35] = tested on: T-47D breast
[36] = tested on: NCI-H522 lung
[37] = tested on: OVCAR-4 ovarian
[38] = tested on: UO-31 renal
[39] = tested on: SNB-75 CNS
[40] = tested on: DU-145 prostate
[41] = tested on: MALME-3M melanoma
[42] = tested on: 786-0 renal
[43] = tested on: RPMI-8226 leukemia
[44] = tested on: HCT-15 colon
[45] = tested on: HCC-2998 colon
[46] = tested on: ACHN renal
[47] = tested on: KM12 colon
[48] = tested on: OVCAR-3 ovarian
[49] = tested on: HT29 colon
[50] = tested on: MDA-MB-435
[51] = tested on: SK-MEL-5 melanoma
[52] = tested on: SW-620 colon
[53] = tested on: HOP-62 NSCLC
[54] = tested on: NCI/ADR-RES ovarian
[55] = tested on: NCI-H23 lung
[56] = tested on: A498 renal
[57] = tested on: U251 CNS

Structure (SMILES): ClCc1cccc2c(CCl)cccc12
- GI50 [1]: 10.5 µM
- TGI [1]: > 100 µM
- GI50 [2]: 5.95 µM
- TGI [2]: 23.4 µM
- GI50 [3]: 12 µM
- TGI [3]: 30.6 µM
- GI50 [4]: 5.08 µM
- TGI [4]: 19.7 µM
- GI50 [5]: 3.25 µM
- TGI [5]: 23.3 µM
- GI50 [6]: 3.47 µM
- TGI [6]: 32.2 µM
- GI50 [7]: 3.99 µM
- TGI [7]: 16.7 µM
- GI50 [8]: 2.83 µM
- TGI [8]: 18.7 µM
- GI50 [9]: 1.86 µM
- TGI [9]: 6.7 µM
- GI50 [10]: 2.28 µM
- TGI [10]: 7.46 µM
- GI50 [11]: 2.95 µM
- TGI [11]: 15 µM
- GI50 [12]: 4.18 µM
- TGI [12]: 19.1 µM
- GI50 [13]: 5.59 µM
- TGI [13]: 19.5 µM
- GI50 [14]: 2.4 µM
- TGI [14]: 7.14 µM
- GI50 [15]: 20.4 µM
- TGI [15]: 67.4 µM
- GI50 [16]: 0.871 µM
- TGI [16]: 7.54 µM
- GI50 [17]: 3.98 µM
- TGI [17]: > 100 µM
- GI50 [18]: 2.83 µM
- TGI [18]: 16.6 µM
- GI50 [19]: 4.21 µM
- TGI [19]: 19.7 µM
- GI50 [20]: 13 µM
- TGI [20]: 39 µM
- GI50 [21]: 4.49 µM
- TGI [21]: > 100 µM
- GI50 [22]: 2.6 µM
- TGI [22]: 12.6 µM
- GI50 [23]: 1.48 µM
- TGI [23]: 4.28 µM
- GI50 [24]: 12.7 µM
- TGI [24]: 27.9 µM
- GI50 [25]: 0.767 µM
- TGI [25]: 2.65 µM
- GI50 [26]: 8.77 µM
- TGI [26]: 24 µM
- GI50 [27]: 21.2 µM
- TGI [27]: > 100 µM
- GI50 [28]: 2.31 µM
- TGI [28]: > 100 µM
- GI50 [29]: 10.9 µM
- TGI [29]: 24.4 µM
- GI50 [30]: 1.39 µM
- TGI [30]: 4.3 µM
- GI50 [31]: 4.29 µM
- TGI [31]: 33.6 µM
- GI50 [32]: 2.86 µM
- TGI [32]: 11.7 µM
- GI50 [33]: 3.33 µM
- TGI [33]: 18 µM
- GI50 [34]: 0.901 µM
- TGI [34]: > 100 µM
- GI50 [35]: 1.81 µM
- TGI [35]: 10.5 µM
- GI50 [36]: 2.83 µM
- TGI [36]: 16.3 µM
- GI50 [37]: 12 µM
- TGI [37]: 75.7 µM
- GI50 [38]: 2.2 µM
- TGI [38]: 8.87 µM
- GI50 [39]: 2.1 µM
- TGI [39]: 14.6 µM
- GI50 [40]: 1.76 µM
- TGI [40]: 4.08 µM
- GI50 [41]: 2.37 µM
- TGI [41]: 25.5 µM
- GI50 [42]: 3.93 µM
- TGI [42]: 18.9 µM
- GI50 [43]: 2 µM
- TGI [43]: 7.41 µM
- GI50 [44]: 5.92 µM
- TGI [44]: 30.1 µM
- GI50 [45]: 2.48 µM
- TGI [45]: 8.3 µM
- GI50 [46]: 2.19 µM
- TGI [46]: 6.21 µM
- GI50 [47]: 1.55 µM
- TGI [47]: 3.48 µM
- GI50 [48]: 1.76 µM
- TGI [48]: 3.83 µM
- GI50 [49]: 2.88 µM
- TGI [49]: 11.2 µM
- GI50 [50]: 4.28 µM
- TGI [50]: 18.7 µM
- GI50 [51]: 8.23 µM
- TGI [51]: 21.4 µM
- GI50 [52]: 3.4 µM
- TGI [52]: 19.1 µM
- GI50 [53]: 3.24 µM
- TGI [53]: 10.2 µM
- GI50 [54]: 2.58 µM
- TGI [54]: 12.1 µM
- GI50 [55]: 5.2 µM
- TGI [55]: 22.8 µM
- GI50 [56]: 11 µM
- TGI [56]: 23.7 µM
- GI50 [57]: 2.89 µM
- TGI [57]: 11.6 µM
